Like-named read-outs stand apart in the source and are kept apart here.
Tests used:
[1] = tested on: CRP; assay: CRP measurements in the 14 week blinded randomized study; type: in vivo, human; conditions: ITT (LOCF)
Source text: The study population had active rheumatoid arthritis.
The powered study ended after these first 10 weeks. […] A schematic of the study design is shown below.

[2] = tested on: subjects with active rheumatoid arthritis; conditions: ITT, missing = non-responder, subjects (% of arm)
Source text: ACR-20/50/70 refers to a composite improvement of 20%, 50% or 70% in swollen joint count, tender joint count, and 3 or more of the following 5 measures: patient's own global assessment of RA disease activity; physician's global assessment of disease activity; patient's own assessment of pain due to RA; acute-phase reactant (CRP); and patient's self-addressed disability (Health Assessment Questionnaire).
(§1) We conducted a 14 week blinded, randomized study including a split dose corticosteroid therapy or placebo, with regular CRP and inflammatory cytokine measurements. The study population had active rheumatoid arthritis. The subject must otherwise have been in good general health.
(§2) Screening Visit • Day 1 (Baseline Visit)—Start of Run-In Period • Day 14 (±2 days)—End of Run-In Period/Start of Treatment Period • Day 42 (±2 days) • Day 70 (±2 days)—End of Treatment Period/Start of Withdrawal Period • Day 98 (±2 days)—End of Study
(§3) All eligible subjects received DMARD therapy in a stable dose. Subjects were evaluated for study eligibility at the Screening visit, which was conducted within 14 days before the first dose of study drug. The subject provided written informed consent to participate in the study before any Screening laboratory samples were collected or evaluations performed.
(§4) All subjects were given 3 mg prednisolone alone for 2 weeks (Run-In Period). Subjects were then randomized into treatment groups to additionally receive 10 mg paroxetine, 20 mg paroxetine or placebo tablets for 8 weeks (Combination Treatment Period). The powered study ended after these first 10 weeks. All subjects continued in an un-powered part of the study for an additional 4 weeks (Withdrawal Period). In this portion of the study, half of the subjects on 10 mg or 20 mg paroxetine plus 3 mg prednisolone stopped taking paroxetine, and instead took 3 mg prednisolone plus placebo, while the other half stopped taking prednisolone, and instead took either dose of paroxetine plus placebo. Similarly, half of the subjects on prednisolone plus placebo stopped the prednisolone, and instead took two placebo tablets, while the other half continued the regimen of 3 mg prednisolone plus placebo.

[3] = tested on: subjects with active rheumatoid arthritis; conditions: ITT (LOCF)
Source text: A visual analog scale (VAS) provides a measure of a one-dimensional quantity. A VAS generally utilizes a representation of distance, such as a picture of a line with hash marks drawn at regular distance intervals, e.g., ten 1-cm intervals. […] This procedure provides a simple and rapid approach to obtaining quantitative information about how the patient is experiencing pain. VAS scales can also be used, e.g., to measure fatigue.
as §1, §2, §3, §4

[4] = cited from earlier work; for Equivalent dose, Equal to 1 mg prednisolone / Equivalent dose, Equal to 5 mg prednisolone: BNF guidelines
[5] = Day 14 (end of run-in, 3 mg prednisolone alone in all arms)

For C[C@]12C=CC(=O)C=C1CC[C@@H]1[C@@H]2[C@@H](O)C[C@@]2(C)[C@H]1CC[C@]2(O)C(=O)CO [3 mg Prednisolone + Placebo, prednisolone], the “CRP % Change from baseline, Max” value [1, 5] was 1700.0%, the “CRP % Change from baseline, Mean (Std Dev)” value (from here on “CRP % Change … (Std Dev)”) [1, 5] was 7.11 (215.970) % and the “CRP % Change from baseline, Median” value [1, 5] was −32.26%. The “CRP % Change from baseline, Min” value [1, 5] was −95.8%, the “CRP Change from baseline, Max” value [1, 5] was 77.9 and the “CRP Change from baseline, Mean (Std Dev)” value [1, 5] was −7.40 (20.149). For the same compound, the “CRP Change from baseline, Median” value [1, 5] was −1.70, the “CRP Change from baseline, Min” value [1, 5] was −83.2 and the “CRP Value, Max” value [1, 5] was 107.3. The “CRP Value, Mean (Std Dev)” value [1, 5] was 11.42 (17.413), the “CRP Value, Median” value [1, 5] was 6.20 and the “CRP Value, Min” value [1, 5] was 0.3. The “CRP % Change from baseline, Max” value ([1]; Day 42) was 187.3%, the “CRP % Change … (Std Dev)” value ([1]; Day 42) was −17.67 (58.589) % and the “CRP % Change from baseline, Median” value ([1]; Day 42) was −23.53%. The “CRP % Change from baseline, Min” value ([1]; Day 42) was −92.5%, the “CRP Change from baseline, Max” value ([1]; Day 42) was 21.5 and the “CRP Change from baseline, Mean (Std Dev)” value ([1]; Day 42) was −8.61 (18.009). The “CRP Change from baseline, Median” value ([1]; Day 42) was −1.00, the “CRP Change from baseline, Min” value ([1]; Day 42) was −81.4 and the “CRP Value, Max” value ([1]; Day 42) was 70.6. The “CRP Value, Mean (Std Dev)” value ([1]; Day 42) was 10.22 (12.443), the “CRP Value, Median” value ([1]; Day 42) was 5.40 and the “CRP Value, Min” value ([1]; Day 42) was 0.3. For the same compound, the “CRP % Change from baseline, Max” value ([1]; Day 70) was 187.3%, the “CRP % Change … (Std Dev)” value ([1]; Day 70) was −13.66 (64.905) % and the “CRP % Change from baseline, Median” value ([1]; Day 70) was −29.27%. For the same compound, the “CRP % Change from baseline, Min” value ([1]; Day 70) was −92.8%, the “CRP Change from baseline, Max” value ([1]; Day 70) was 15.5 and the “CRP Change from baseline, Mean (Std Dev)” value ([1]; Day 70) was −8.95 (18.996). For the same compound, the “CRP Change from baseline, Median” value ([1]; Day 70) was −1.20, the “CRP Change from baseline, Min” value ([1]; Day 70) was −87.7 and the “CRP Value, Max” value ([1]; Day 70) was 64.6. The “CRP Value, Mean (Std Dev)” value ([1]; Day 70) was 9.88 (11.956), the “CRP Value, Median” value ([1]; Day 70) was 5.70 and the “CRP Value, Min” value ([1]; Day 70) was 0.2. For the same compound, the “ACR20 response from baseline: No” value [2, 5] was 53 (77), the “ACR20 response from baseline: Yes” value [2, 5] was 16 (23) and the “ACR50 response from baseline: No” value [2, 5] was 64 (93). For the same compound, the “ACR50 response from baseline: Yes” value [2, 5] was 5 (7), the “ACR70 response from baseline: No” value [2, 5] was 66 (96) and the “ACR70 response from baseline: Yes” value [2, 5] was 3 (4). The “ACR20 response from baseline: No” value ([2]; Day 42) was 44 (64), the “ACR20 response from baseline: Yes” value ([2]; Day 42) was 25 (36) and the “ACR50 response from baseline: No” value ([2]; Day 42) was 60 (87). The “ACR50 response from baseline: Yes” value ([2]; Day 42) was 9 (13), the “ACR70 response from baseline: No” value ([2]; Day 42) was 67 (97) and the “ACR70 response from baseline: Yes” value ([2]; Day 42) was 2 (3). For the same compound, the “ACR20 response from baseline: No” value ([2]; Day 70) was 39 (57), the “ACR20 response from baseline: Yes” value ([2]; Day 70) was 30 (43) and the “ACR50 response from baseline: No” value ([2]; Day 70) was 55 (80). For the same compound, the “ACR50 response from baseline: Yes” value ([2]; Day 70) was 14 (20), the “ACR70 response from baseline: No” value ([2]; Day 70) was 65 (94) and the “ACR70 response from baseline: Yes” value ([2]; Day 70) was 4 (6). For the same compound, the “Patient Pain Assessment (VAS) score % Change from baseline, Max” value [3, 5] was 106.7%, the “Patient Pain Assessment (VAS) score % Change from baseline, Mean (Std Dev)” value [3, 5] was −13.65 (38.137) % and the “Patient Pain Assessment (VAS) score % Change from baseline, Median” value [3, 5] was −11.11%. For the same compound, the “Patient Pain Assessment (VAS) score % Change from baseline, Min” value [3, 5] was −94.7%, the “Patient Pain Assessment (VAS) score Change from baseline, Max” value [3, 5] was 35.0 and the “Patient Pain Assessment (VAS) score Change from baseline, Mean (Std Dev)” value [3, 5] was −7.73 (19.337). For the same compound, the “Patient Pain Assessment (VAS) score Change from baseline, Median” value [3, 5] was −5.00, the “Patient Pain Assessment (VAS) score Change from baseline, Min” value [3, 5] was −81.0 and the “Patient Pain Assessment (VAS) score Value, Max” value [3, 5] was 97.0. For the same compound, the “Patient Pain Assessment (VAS) score Value, Mean (Std Dev)” value [3, 5] was 45.58 (25.283), the “Patient Pain Assessment (VAS) score Value, Median” value [3, 5] was 47.00 and the “Patient Pain Assessment (VAS) score Value, Min” value [3, 5] was 2.0. For the same compound, the “Patient Pain Assessment (VAS) score % Change from baseline, Max” value ([3]; Day 42) was 186.7%, the “Patient Pain Assessment (VAS) score % Change from baseline, Mean (Std Dev)” value ([3]; Day 42) was −19.23 (47.955) % and the “Patient Pain Assessment (VAS) score % Change from baseline, Median” value ([3]; Day 42) was −23.44%. For the same compound, the “Patient Pain Assessment (VAS) score % Change from baseline, Min” value ([3]; Day 42) was −93.5%, the “Patient Pain Assessment (VAS) score Change from baseline, Max” value ([3]; Day 42) was 56.0 and the “Patient Pain Assessment (VAS) score Change from baseline, Mean (Std Dev)” value ([3]; Day 42) was −10.57 (21.630). For the same compound, the “Patient Pain Assessment (VAS) score Change from baseline, Median” value ([3]; Day 42) was −9.00, the “Patient Pain Assessment (VAS) score Change from baseline, Min” value ([3]; Day 42) was −64.0 and the “Patient Pain Assessment (VAS) score Value, Max” value ([3]; Day 42) was 97.0. For the same compound, the “Patient Pain Assessment (VAS) score Value, Mean (Std Dev)” value ([3]; Day 42) was 42.74 (26.143), the “Patient Pain Assessment (VAS) score Value, Median” value ([3]; Day 42) was 37.00 and the “Patient Pain Assessment (VAS) score Value, Min” value ([3]; Day 42) was 2.0. The “Patient Pain Assessment (VAS) score % Change from baseline, Max” value ([3]; Day 70) was 233.3%, the “Patient Pain Assessment (VAS) score % Change from baseline, Mean (Std Dev)” value ([3]; Day 70) was −17.84 (57.121) % and the “Patient Pain Assessment (VAS) score % Change from baseline, Median” value ([3]; Day 70) was −25.64%. The “Patient Pain Assessment (VAS) score % Change from baseline, Min” value ([3]; Day 70) was −90.5%, the “Patient Pain Assessment (VAS) score Change from baseline, Max” value ([3]; Day 70) was 49.0 and the “Patient Pain Assessment (VAS) score Change from baseline, Mean (Std Dev)” value ([3]; Day 70) was −12.28 (23.864). For the same compound, the “Patient Pain Assessment (VAS) score Change from baseline, Median” value ([3]; Day 70) was −10.00, the “Patient Pain Assessment (VAS) score Change from baseline, Min” value ([3]; Day 70) was −69.0 and the “Patient Pain Assessment (VAS) score Value, Max” value ([3]; Day 70) was 97.0. The “Patient Pain Assessment (VAS) score Value, Mean (Std Dev)” value ([3]; Day 70) was 41.04 (25.466), the “Patient Pain Assessment (VAS) score Value, Median” value ([3]; Day 70) was 39.00 and the “Patient Pain Assessment (VAS) score Value, Min” value ([3]; Day 70) was 2.0.
For CC(=O)OCC(=O)[C@@]1(O)CC[C@H]2[C@@H]3CCC4=CC(=O)CC[C@]4(C)[C@H]3C(=O)C[C@@]21C [cortisone acetate], the “Equivalent dose, Equal to 1 mg prednisolone” value [4] is given as 5 mg and the “Equivalent dose, Equal to 5 mg prednisolone” value [4] is given as 25 mg.
In the case of CC(=O)OCC(=O)[C@@]12N=C(C)O[C@@H]1C[C@H]1[C@@H]3CCC4=CC(=O)C=C[C@]4(C)[C@H]3[C@@H](O)C[C@@]12C [deflazacort], the “Equivalent dose, Equal to 1 mg prednisolone” value [4] is given as 1.2 mg and the “Equivalent dose, Equal to 5 mg prednisolone” value [4] is given as 6 mg.
In the case of C[C@]12CCC(=O)C=C1CC[C@@H]1[C@@H]2[C@@H](O)C[C@@]2(C)[C@H]1CC[C@]2(O)C(=O)CO [hydrocortisone], the “Equivalent dose, Equal to 1 mg prednisolone” value [4] is given as 4 mg and the “Equivalent dose, Equal to 5 mg prednisolone” value [4] is given as 20 mg.
In the case of C[C@]12C=CC(=O)C=C1CC[C@H]1[C@@H]3C[C@@H](O)[C@](O)(C(=O)CO)[C@@]3(C)C[C@H](O)[C@@]12F [triamcinolone], the “Equivalent dose, Equal to 1 mg prednisolone” value [4] is listed as 0.8 mg, the “Equivalent dose, Equal to 5 mg prednisolone” value [4] is listed as 4 mg and the “Broadly similar dose from clinical dosing equivalence” value ([4]; nasal administration, BNF 37 Mar. 1999) is listed as 110 µg.
For methyl prednisone, the “Equivalent dose, Equal to 1 mg prednisolone” value [4] is listed as 0.8 mg and the “Equivalent dose, Equal to 5 mg prednisolone” value [4] is listed as 4 mg.
